Results taken from paper PMC9586926, “An efflux-susceptible antibiotic-adjuvant with systemic efficacy against mouse infections” (Scientific Reports, 2022).
Values after ≈ are worked out from the molar mass of the structure shown. Read-outs that look alike come from different tables or passages of the source. Where a SMILES comes first, the peptide text is derived from it. [ ]: non-standard residue; d: D form. The star is where a group is joined. 12Ado = NCCCCCCCCCCCC(=O)O; Decanoyl = CCCCCCCCCC(=O)*; Orn = NCCC[C@H](N)C(=O)O

Key:
[1] = system: S. Typhimurium 14028 (wild-type); conditions: cited from earlier work
Text: Table 2 Effect of RND pumps on growth-inhibitory activity. | column: MIC^a (µM) in LB / S. Typhimurium / Wild-Type

E. coli 25922 [2] = conditions: same assessment tools; cited from earlier work
Text: To our knowledge, the finding of an adjuvant whose activity is enhanced—rather than repressed—after efflux, is hitherto unreported. One might ask, at this point: If the K-, O and B-based analogs are efflux substrates (as implied by MIC data, Table 2), how come only C10BBc12B is positively affected by efflux?

HEK-293FT = assay: Cytotoxicity, Alamar blue; assay type: cell-based, human; conditions: 24 h incubation, read-out: IC50 HEK-293FT (50% inhibition of cells respiration)
Method: (§1) Cell lines used in this study included murine RAW 264.7 macrophages and human embryonic kidney HEK-293FT cells (ATCC, Biological Industries, Beit Haemek, Israel). Cells were grown in Dulbecco’s modified eagle medium (DMEM) containing […] glucose, L-glutamine, sodium bicarbonate and sodium pyruvate, supplemented with 10% fetal bovine serum and pen-strep, at 37 °C and 5% CO2.
(§2) Lipopeptides cytotoxicity was determined using fluorescent measurements of reduced resazurin. 2 × 10^4 cells were first cultured in 96-well plates over-night (final volume of 100 µl) at 37 °C and 5% CO2. Then, the medium was removed and cells were incubated for an additional 24 h with serial twofold dilutions of the lipopeptides in growth medium. Then, 10 µl of Alamar blue were added and plates were incubated for 3 h, after which fluorescence (excitation: 530 nm; emission: 590 nm) of the reduced resazurin was recorded (BioTek Instruments Synergy HT; Winooski, VT, USA).

[3] = system: E. coli Ag100 (wild-type); conditions: cited from earlier work
Text: Table 2 Effect of RND pumps on growth-inhibitory activity. | column: MIC^a (µM) in LB / E. coli / Wild-Type

E. coli = assay: MIC, broth microdilution; assay type: cell-based, Escherichia coli; conditions: broth microdilution in LB, 18–24 h, 37 °C; n = 4 strains; published data in bold (not discernible)
Text: (§3) Bacteria used in this study consisted of standard American Type Culture Collection (ATCC; Biological Industries, Beit Haemek, Israel) strains, clinically isolated (CI; Sourasky Medical Center, Tel Aviv, Israel) strains, as well as isogenic mutant strains. Gram-negative bacteria included Acinetobacter baumannii ATCC 19606; Escherichia coli ATCC 25922, 35218, CFT073, CI 14384, 16327, and the isogenic pair Ag100 (wild-type) and its efflux deficient mutant Ag100a (ΔacrAB); Klebsiella pneumoniae CI 1287, 224; Pseudomonas aeruginosa ATCC 27853, CI 1278, 8634; Salmonella enterica serovar Typhimurium ATCC 14028 (wild-type) and its isogenic efflux deficient mutant ΔacrAB. Bacteria were grown in Luria–Bertani broth (LB; 5 g/l NaCl, 5 g/l yeast extract, 10 g/l tryptone; pH = 7.0) at 37 °C with shaking. Over-night cultures were diluted 10-folds into fresh growth-medium and incubated at 37 °C with shaking until reaching mid-logarithmic phase. Then, bacterial concentrations were adjusted using O.D.600 nm measurements, and bacteria were subjected to the experimental procedures listed herein.
(§4) MIC was determined according to the broth microdilution method: antimicrobials were subjected to serial twofold dilutions in LB medium, and incubated with 5 × 10^5 CFU/ml of bacteria (final volume of 200 µl) for 18–24 h at 37 °C. Then, O.D.620 nm was measured (BioTek Instruments Synergy HT; Winooski, VT, USA), and the MIC was defined as the lowest antimicrobial concentration for which no increase in O.D.620 nm was evident, compared to the untreated control.

A. baumannii = assay: MIC, broth microdilution; assay type: cell-based, Acinetobacter baumannii; conditions: broth microdilution in LB, 18–24 h, 37 °C; n = 1 strain
Text: as §3, §4

K. pneumoniae = assay: MIC, broth microdilution; assay type: cell-based, Klebsiella pneumoniae; conditions: broth microdilution in LB, 18–24 h, 37 °C; n = 2 strains
Text: as §3, §4

P. aeruginosa = assay: MIC, broth microdilution; assay type: cell-based, Pseudomonas aeruginosa; conditions: broth microdilution in LB, 18–24 h, 37 °C; n = 3 strains
Text: as §3, §4

murine RBC = assay: Hemolysis; assay type: cell-based; conditions: 1% hematocrit murine RBC, 3 h, 37 °C
Method: Permeabilization of red blood cells (RBC) was evaluated using absorbance measurements of extracellular hemoglobin. Serial twofold dilutions of lipopeptides were incubated with 1% hematocrit of murine RBC for 3 h at 37 °C with shaking. Samples were then centrifuged at 20,000 RCF for 5 min, and absorbance of the supernatants was measured at 450 nm (BioTek Instruments Synergy HT; Winooski, VT, USA). Percent hemolysis was then calculated by (AS − AN)/(AP − AN) × 100; where AS, AN, and AP represent the absorbance of the sample, negative control (PBS) and positive control (Milli-Q water), respectively. LC50 values were extracted from trend-lines generated for linear-regions of plots correlating lipopeptide concentrations and percent hemolysis.

[4] = system: S. Typhimurium 14028ΔAcrAB; conditions: cited from earlier work
Text: Table 2 Effect of RND pumps on growth-inhibitory activity. | column: MIC^a (µM) in LB / S. Typhimurium / Mutant

E. coli Ag100a (ΔacrAB) [5] = conditions: cited from earlier work
Text: Table 2 Effect of RND pumps on growth-inhibitory activity. | column: MIC^a (µM) in LB / E. coli / Mutant

RAW 264.7 = assay: Cytotoxicity, Alamar blue; assay type: cell-based, murine; conditions: 24 h incubation, read-out: IC50 RAW 264.7 (50% inhibition of cells respiration)
Method: as §1, §2

[6] = parameters: method as in PMID 28329302; conditions: 40 mg/kg dose; cited from earlier work
E. coli 25922 [7] = assay: Outer membrane permeabilization, NPN fluorescence; assay type: cell-based, Escherichia coli
Method: Lipopeptides ability to permeabilize the OM was evaluated using fluorescent measurements of N-phenyl-1-naphthylamine (NPN)[67]. 200 µl of an over-night culture were diluted into 10 ml of fresh LB medium and incubated at 37 °C with shaking until reaching O.D.600 nm = 0.5. The culture was then centrifuged at 10,000 RCF for 3 min, the supernatant aspirated, and the pellet resuspended in equal volume of 5 mM HEPES containing 5 mM glucose (pH = 7.2). This suspension was then mixed with NPN (5 mM in acetone) to reach a final NPN concentration of 10 µM. Then, 190 µl of this mixture were dispensed into black microtiter plates, mixed with 10 µl of HEPES containing serial twofold dilutions of lipopeptides and fluorescence (excitation: 360 nm; emission: 460 nm) was recorded immediately for up to 10 min at 37 °C with shaking[29] (BioTek Instruments Synergy HT; Winooski, VT, USA). In a modified version of this assay, in which efflux was inhibited, bacteria (similarly prepared) were incubated with the lipopeptides in presence or absence of 100 µM CCCP for 5 min. Samples were then twice centrifuged at 10,000 RCF for 3 min, the supernatant aspirated, and the pellet resuspended in equal volume of 5 mM HEPES containing 20 mM glucose (pH = 7.2), so as to re-energize the efflux machinery. NPN was then added (final concentration of 10 µM) and fluorescence was recorded immediately thereafter.

[8] = system: E. coli Ag100 (wild-type); assay: MIC, broth microdilution, wild-type strain; assay type: cell-based, Escherichia coli
Text: as §3
(§5) MIC was determined according to the broth microdilution method: antimicrobials were subjected to serial twofold dilutions in LB medium, and incubated with 5 × 10^5 CFU/ml of bacteria (final volume of 200 µl) for 18–24 h at 37 °C. […]

E. coli Ag100a (ΔacrAB) [9] = assay: MIC, broth microdilution, efflux deficient mutant; assay type: cell-based, Escherichia coli; conditions: Ag100a
Text: as §3, §5

[10] = system: S. Typhimurium 14028 (wild-type); assay: MIC, broth microdilution, wild-type strain; assay type: cell-based, Salmonella enterica serovar Typhimurium
Text: as §3, §5

[11] = system: S. Typhimurium 14028ΔAcrAB; assay: MIC, broth microdilution, efflux deficient mutant; assay type: cell-based, Salmonella enterica serovar Typhimurium
Text: as §3, §5

E. coli 25922 [12] = assay: Cytoplasmic membrane depolarization, DiSC3(5) fluorescence; assay type: cell-based, Escherichia coli; conditions: C10BBc12B up to 10 µM; PMB 2.5 µM
Method: Lipopeptides aptitude to depolarize the CM was evaluated using fluorescent measurements of the transmembrane potential sensitive dye 3,3′-Dipropylthiadicarbocyanine iodide (DiSC3(5))[69]. Bacteria (O.D.600 nm = 0.1) were washed by centrifugation at 10,000 RCF for 5 min, supernatant aspiration, and pellet resuspension in 5 mM HEPES containing 20 mM glucose, 50 mM KCl and 0.2 mM EDTA (pH = 7.2). This suspension was mixed with DiSC3(5) (400 µM in DMSO) to reach a final DiSC3(5) concentration of 4 µM and was incubated in the dark for 1 h at 37 °C with shaking. Then, 180 µl of this mixture were dispensed into black microtiter plates and fluorescence was recorded (excitation: 622 nm; emission: 670 nm) at 37 °C with shaking until baseline stabilization (BioTek Instruments Synergy HT; Winooski, VT, USA). Finally, 20 µl of HEPES containing serial twofold dilutions of lipopeptides were added and fluorescence was recorded for up to 30 min at the same conditions.

E. coli 25922 [13] = conditions: ref 23 (C14(ɷ5)OOc10O), ref 41 (PMBN); cited from earlier work
Text: Towards better understanding the synergistic mechanism, we compared individual growth kinetics to determine contributions of each antimicrobial and assessed the type and extent of implicated membrane damages, assuming that low OM-permeability underlies the observed antibiotics inefficiencies by impeding their intracellular accumulation.

For `CCCCCCCCCC(=O)N[C@@H](CCCN)C(=O)N[C@@H](CCCN)C(=O)NCCCCCCCCCCCC(=O)N[C@@H](CCCN)C(N)=O` [C10OOc12O] (Decanoyl-[Orn][Orn][12Ado][Orn]-NH2), the “MIC (µM) in LB, S. Typhimurium Wild-Type” value [1] is given as > 50 µM, the CM depolarization (E. coli 25922 [2]) is given as “interact with the CM to the point of inducing its depolarization” and the IC50 (HEK-293FT) is given as > 50 µM. For the same molecule, the “MIC (µM) in LB, E. coli Wild-Type” value [3] was > 50 µM, the “MIC E. coli (n=4)” value (E. coli) was ≥ 50 µM and the “MIC A. baumannii (n=1)” value (A. baumannii) was > 50 µM. The “MIC K. pneumoniae (n=2)” value (K. pneumoniae) was > 50 µM, the “MIC P. aeruginosa (n=3)” value (P. aeruginosa) was > 50 µM and the “LC50 Erythrocytes (50% hemolysis)” value (murine RBC) was > 50 µM. The “MIC (µM) in LB, S. Typhimurium Mutant” value [4] was 6.2 µM (≈ 4.41 µg/mL), the “MIC (µM) in LB, E. coli Mutant” value (E. coli Ag100a (ΔacrAB) [5]) was 6.2 µM (≈ 4.41 µg/mL) and the IC50 (RAW 264.7) was > 50 µM. For the same molecule, the mortality [6] was “mortality of another mouse was recorded within an hour”.

With Polymyxin B [reference compound] the “reduction of NPN fluorescence by 10 mM MgCl2” value (E. coli 25922 [7]) was “much less”, the “MIC (µM) in LB, E. coli Wild-Type” value [8] was 0.7 µM and the “MIC (µM) in LB, E. coli Mutant” value (E. coli Ag100a (ΔacrAB) [9]) was 0.7 µM. For the same molecule, the “MIC (µM) in LB, S. Typhimurium Wild-Type” value [10] was 0.7 µM, the “MIC (µM) in LB, S. Typhimurium Mutant” value [11] was 0.7 µM and the “CM depolarization (trans-membrane potential)” value (E. coli 25922 [12]) was “rapid CM-depolarization”.

In the case of polymyxin B nonapeptide [PMBN], the “effect of sub-inhibitory concentrations on bacterial growth in absence of antibiotics” value (E. coli 25922 [13]) is listed as “transiently inhibited bacterial growth”.
